Source: patent US5540931A, “Methods for inducing site-specific immunosuppression and compositions of site specific immunosuppressants” (Hewitt; Charles W., priority 1994, dated 1996)

Key:
[1] = system: contact hypersensitivity reactions of skin tissue; conditions: topical
Text: Rapamycin (0.01%), cyclosporine (0.1%), and rapamycin-cyclosporine (0.01%/0.1%) combined formulations, were applied in a trinary drug delivery system consisting of 1,2 propanediol, diethylene glycol monoethyl ether, and a glyceryl caprylate/caprate polyethylene glycol complex.
To further elaborate, rapamycin (0.001%), cyclosporine (0.01%), and rapamycin-cyclosporine (0.001%/0.01%) combined formulations, were applied in a trinary drug delivery system consisting of 1,2 propanediol, diethylene glycol monoethyl ether, and a glyceryl caprylate/caprate polyethylene glycol complex (6:3:1).

[2] = system: mixed lymphocyte responses; test: In vitro site-specific mixed lymphocyte response; format: cell-based; conditions: FIGS. 14 A and B

With CO[C@H]1C[C@@H]2CC[C@@H](C)[C@@](O)(O2)C(=O)C(=O)N2CCCC[C@H]2C(=O)O[C@H]([C@H](C)C[C@@H]2CC[C@@H](O)[C@H](OC)C2)CC(=O)[C@H](C)/C=C(\C)[C@@H](O)[C@@H](OC)C(=O)[C@H](C)C[C@H](C)/C=C/C=C/C=C/1C [Rapamycin, rapamycin] the “efficacy by local inflammatory immune phase (early versus late)” value ([1]; contact dermatitis model) was “particularly efficacious during the late local inflammatory-immune phase”, the “site-specific immune suppression in contact dermatitis at low concentrations” value ([1]; rapamycin 0.001%, cyclosporine 0.01%, combination 0.001%/0.01%, trinary vehicle (6:3:1)) was “provided surprising site-specific immune suppression” and the “local inflammatory/immune response in contact hypersensitivity” value ([1]; rapamycin 0.01%, cyclosporine 0.1%, combination 0.01%/0.1%, 1,2 propanediol/Transcutol/Labrasol vehicle, FIG. 13B) was “inhibited local inflammatory/immune responses”. The “site-specific immune suppression of primary or activated cellular immune responses” value ([2]; agent alone) was “provided potent site-specific immune suppression” and the “efficacy by inflammatory immune phase (early versus late)” value ([2]; local application) was “surprisingly efficacious with local application during both late and early inflammatory immune phases”.
